Measured values from US8895501B2, “Eye-drop vaccine containing copolymer 1 for therapeutic immunization” (Yeda Research and Development Co. Ltd., priority 2003, dated 2014).
Values joined by “and” are separate entries in the source; they are usually repeats but may differ in a detail not shown here. Equal values may be shown once.

How the values were obtained:
[1] = tested on: retinal ganglion cells (RGCs); assay: Chronic high IOP model (laser-induced), IOP-induced RGC death; type: in vivo, rat; conditions: for % of death of RGCs: non-thymectomized rats; for % of death of RGCs / loss of RGCs (% death): treatment started immediately after IOP elevation (Cop-1 single injection, brimonidine daily), 3 weeks; for loss of RGCs (% death): thymectomized (T cell-deprived) rats
Description: (§1) Inbred adult male Lewis and Sprague-Dawley (SPD) rats (8 weeks; average weight 300 g) were supplied by the Animal Breeding Center at The Weizmann Institute of Science (Rehovot, Israel). The rats were maintained in a light- and temperature-controlled room and were matched for age and weight before each experiment. All animals were handled according to the regulations formulated by IACUC ([…]).
Blockage of aqueous outflow causes an increase in IOP, which results in RGC death (Bakalash et al., 2002; Schori et al., 2001; Jia et al., 2000a; Levkovitch-Verbin et al., 2002). […] Rats were deeply anesthetized by intramuscular injection of ketamine hydrochloride (50 mg/kg) and xylazine hydrochloride (0.5 mg/kg). A slit lamp emitting blue-green argon laser irradiation (Haag-Streit, Köniz, Switzerland) was used to treat the right eye of the anesthetized rat with 80 to 120 applications directed toward three of the four episcleral veins and toward 270° of the limbal plexus. The laser beam was applied with a power of 1 W for 0.2 seconds, producing a spot size of 100 μm at the episcleral veins and 50 μm at the limbal plexus. At a second laser session 1 week later, the same parameters were used, except that the spot size was 100 μm in all applications. Irradiation was directed toward all four episcleral veins and 360° of the limbal plexus (Schori et al. 2001).
(§2) Eyes from untreated rats were used as a control. RGCs were counted by an observer who was blinded to the identity of the retinas.
Rats with either laser-induced increase in IOP or acute IOP elevation were immunized with Cop 1 (100 μg) (Teva Pharmaceutical Industries Ltd., Petach Tikva, Israel) emulsified in 2.5 mg/ml of CFA in a total volume of 100 μl (Kipnis et al., 2000). Each animal was vaccinated subcutaneously at the root of the tail.
(§3) Cop-1 in PBS was given at different concentrations and at different time points after the primary insult subcutaneously. Topical administration of Cop-1 was done after immersing the substance in PBS at a concentration of 20 mg/ml. Since each drop was of 50 μl, we administered 1 drop every 5 minutes for a total of 5 drops in 25 minutes.

[2] = tested on: retinal ganglion cells (RGCs); assay: Acute transient high IOP model, IOP-induced RGC death; type: in vivo, Lewis rats
Description: as §1
The infusion bag was placed 1 meter above the rat's head, creating a closed loop circulation. High IOP was induced for exactly 1 hour after which the needle was removed from the eye and the hole was self-sealed.
as §2, §3

Compound	% of death of RGCs [1] [%]	loss of RGCs (% death) [1]	Average death rate of RGCs ([2]; 5 mg Cop-1 over 25 minutes immediately after 1 hour of elevated IOP, two weeks after IOP elevation, n=4)	RGC protection, eye drops applied to the eye contralateral to the elevated pressure ([2]; Cop-1 eye drops to contralateral side versus ipsilateral)	loss of RGCs ([2]; Cop-1 without adjuvant, 2 weeks after transient IOP elevation (1 hour)) [%]	% of RGC death ([1]; Cop-1 emulsified in CFA, day of first laser plus 2, 6 and 9 weeks later, retinas excised 12 weeks after first laser, n=5) [%]	% of RGC death ([1]; Cop-1 emulsified in CFA, immunized on day of first laser, retinas excised 3 weeks later, n=7) [%]	% of RGC death ([1]; adjuvant-free 500 μg, daily injections for 7 days starting on day 0, retinas excised 3 weeks later) [%]	% of RGC death ([1]; adjuvant-free 500 μg, single injection on day 7 after first laser, retinas excised 3 weeks later) [%]	% of RGC death ([1]; adjuvant-free, subcutaneous, 100 μg on first day of laser treatment) [%]	% of RGC death ([1]; adjuvant-free, subcutaneous, 250 μg on first day of laser treatment) [%]	% of RGC death ([1]; adjuvant-free, subcutaneous, 500 μg on first day of laser treatment) [%]	RGC protection 6 weeks after IOP was first elevated, comparison of regimens ([1]; adjuvant-free, two injections (day 0 and 3 weeks later) versus a single injection after 3 weeks)	number of RGCs ([1]; eye drops without adjuvant, 5 mg Cop-1, assessed 3 weeks after pressure elevation, p<10^-5) [RGCs]
Brc1c(NC2=NCCN2)ccc2nccnc12 [brimonidine]	34.5±3.51	38±7%												
glatiramer acetate [Cop-1]	23.5±5.7	55±5.2% and 55%	31.12%±3.22	same effect as when given ipsilaterally	20	33.7±1.4	12.6±5	41.41±6	19.1±14.7	44±6	50.5±8	26.6±10	more effective than a single injection after 3 weeks	150
